The target of assay [1] is T1, DDR2 (Nonlabens (Donghaeana) dokdonensis rhodopsin, sodium-ion-pumping rhodopsin) (Nonlabens dokdonensis, UniProt A0ABX5Q1D8).
T1 construct: gene LX97_00829; pentamer at neutral pH
T1 sequence (A0ABX5Q1D8 1-279): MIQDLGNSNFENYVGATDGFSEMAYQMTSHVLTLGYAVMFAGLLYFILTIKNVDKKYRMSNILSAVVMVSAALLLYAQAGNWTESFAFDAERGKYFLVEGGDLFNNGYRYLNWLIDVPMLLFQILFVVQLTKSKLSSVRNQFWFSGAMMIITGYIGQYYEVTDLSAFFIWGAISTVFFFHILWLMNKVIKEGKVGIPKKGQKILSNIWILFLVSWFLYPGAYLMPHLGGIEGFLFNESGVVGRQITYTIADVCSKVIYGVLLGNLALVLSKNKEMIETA
In words: absorption spectroscopy of the pigment. The following applies: covalent, protonated Schiff base to lysine; pH 8, room temperature. In kind it is binding.

Assay [2] has as its target Nonlabens (Donghaeana) dokdonensis rhodopsin (DDR2) (Nonlabens (Donghaeana) dokdonensis). Kind of assay: SEC; AKTA FPLC; DDM-solubilised DDR2 at pH 7 or 9; apparent masses from soluble protein markers; 0.06% DDM, 300 mM NaCl; also run with salinixanthin bound (oligomeric form not affected). Background: SEC sorts molecules by how far they enter the pores of the column.

Several values for one entry are separate records, joined by “and”; a condition that tells them apart may be missing. Equal values may be shown once.

Consider `CC1=C(/C=C/C(C)=C/C=C/C(C)=C/C=O)C(C)(C)CCC1` [all-trans retinal], for which, in assay [1], the “absorption spectroscopy of the pigment” value is “absorption of the all-trans retinal chromophore covalently bound to the protein”.
On to “Nonlabens (Donghaeana) dokdonensis rhodopsin (DDR2) (natural protein)”, for which the stoichiometry N in assay [2] is 5 and 10.

As a reminder, the stoichiometry N is the number of molecules, sites or subunits per partner or assembly.

For the origin of these results see PMC10026069, “Retinal–Carotenoid Interactions in a Sodium-Ion-Pumping Rhodopsin: Implications on Oligomerization and Thermal Stability” (The Journal of Physical Chemistry. B, 2023).
